Laboratory results from US20230256007A1 (priority 2022, published 2023).

Tested on: patient with sequelae of coronavirus pneumonia (omicron variant of coronavirus)
Conditions: human, in vivo

[HH] [hydrogen gas, hydrogen]
Daily headache and migraine that occurred several times a day: relieved | Generalized pain, difficulty breathing, feeling of faintness, malaise, fatigue after exertion, sleeping disorder, low-grade fever, bradycardia, blood pressure drop: continues to alleviate symptoms | State of pulmonary fibrosis: improving | Time after which sleeping disorder improved: about 3 days
